Active and inactive are the calls of the source.
What was measured:
[1] = molecular target: T1, Apoptotic protease-activating factor 1 (Homo sapiens, UniProt O14727); assay: activation of Apaf-1 mediated apoptosis – fluorescent, uHTS hits, dose response (AID 588554); format: functional
T1 sequence (O14727 whole entry): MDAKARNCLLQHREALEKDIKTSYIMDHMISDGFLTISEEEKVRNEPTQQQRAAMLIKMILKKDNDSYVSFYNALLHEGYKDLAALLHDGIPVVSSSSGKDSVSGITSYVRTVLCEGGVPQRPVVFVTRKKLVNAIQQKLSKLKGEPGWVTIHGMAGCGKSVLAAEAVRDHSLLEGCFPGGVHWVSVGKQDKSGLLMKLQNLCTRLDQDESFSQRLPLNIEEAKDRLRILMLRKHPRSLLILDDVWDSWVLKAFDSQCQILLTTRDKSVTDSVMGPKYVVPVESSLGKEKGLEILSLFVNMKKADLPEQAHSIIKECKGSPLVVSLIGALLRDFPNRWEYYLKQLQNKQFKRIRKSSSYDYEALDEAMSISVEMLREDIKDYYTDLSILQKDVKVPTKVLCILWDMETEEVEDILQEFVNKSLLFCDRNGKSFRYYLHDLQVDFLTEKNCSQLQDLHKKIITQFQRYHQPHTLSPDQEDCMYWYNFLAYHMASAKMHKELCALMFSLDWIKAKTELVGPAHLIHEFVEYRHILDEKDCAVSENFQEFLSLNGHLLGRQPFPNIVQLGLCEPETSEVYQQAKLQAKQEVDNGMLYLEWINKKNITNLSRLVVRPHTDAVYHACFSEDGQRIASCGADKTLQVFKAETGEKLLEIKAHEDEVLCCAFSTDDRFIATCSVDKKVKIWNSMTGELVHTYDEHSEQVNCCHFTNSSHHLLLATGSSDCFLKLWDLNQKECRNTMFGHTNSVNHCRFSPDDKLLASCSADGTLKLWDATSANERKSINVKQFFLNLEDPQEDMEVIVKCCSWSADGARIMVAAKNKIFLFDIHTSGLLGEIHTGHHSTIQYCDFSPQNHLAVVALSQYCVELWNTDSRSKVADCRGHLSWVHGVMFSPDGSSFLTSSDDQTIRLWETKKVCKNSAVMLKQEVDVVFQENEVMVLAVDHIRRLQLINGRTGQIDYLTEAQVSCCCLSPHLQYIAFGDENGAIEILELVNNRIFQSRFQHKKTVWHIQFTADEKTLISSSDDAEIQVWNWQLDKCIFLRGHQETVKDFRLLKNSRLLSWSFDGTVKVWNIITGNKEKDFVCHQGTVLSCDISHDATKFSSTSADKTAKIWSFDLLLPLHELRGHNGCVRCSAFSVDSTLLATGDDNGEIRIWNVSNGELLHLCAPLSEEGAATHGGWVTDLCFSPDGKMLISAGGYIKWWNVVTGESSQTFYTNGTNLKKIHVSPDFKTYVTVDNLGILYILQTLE

[2] = Luminescence Cell-Based Dose Response HTS to Identify Activators of Luciferase Translation or Activity in H4 […] Cells. [Related pubchem assays: 1829 (Project Summary), 1814 (Primary HTS)]; format: functional
[3] = tested on: H4; assay: Luminescence Cell-Based Dose Response HTS to Identify Activators of 5'UTR Stem-Loop Driven Prion Protein mRNA Translation in H4 Neuroglioblastoma Cells. [Related pubchem assays: 1829 (Project Summary), 1814 (Primary HTS)]; format: functional; settings: Homo sapiens
[4] = molecular target: Keap1/Nrf2 (Homo sapiens, UniProt Q14145); assay: disruptors of Keap1 binding to Nrf2 peptide – biochemical, fluorescence polarization, cherry-picked samples, dose response (AID 588683)
Chain of Keap1/Nrf2 (Q16236 whole entry): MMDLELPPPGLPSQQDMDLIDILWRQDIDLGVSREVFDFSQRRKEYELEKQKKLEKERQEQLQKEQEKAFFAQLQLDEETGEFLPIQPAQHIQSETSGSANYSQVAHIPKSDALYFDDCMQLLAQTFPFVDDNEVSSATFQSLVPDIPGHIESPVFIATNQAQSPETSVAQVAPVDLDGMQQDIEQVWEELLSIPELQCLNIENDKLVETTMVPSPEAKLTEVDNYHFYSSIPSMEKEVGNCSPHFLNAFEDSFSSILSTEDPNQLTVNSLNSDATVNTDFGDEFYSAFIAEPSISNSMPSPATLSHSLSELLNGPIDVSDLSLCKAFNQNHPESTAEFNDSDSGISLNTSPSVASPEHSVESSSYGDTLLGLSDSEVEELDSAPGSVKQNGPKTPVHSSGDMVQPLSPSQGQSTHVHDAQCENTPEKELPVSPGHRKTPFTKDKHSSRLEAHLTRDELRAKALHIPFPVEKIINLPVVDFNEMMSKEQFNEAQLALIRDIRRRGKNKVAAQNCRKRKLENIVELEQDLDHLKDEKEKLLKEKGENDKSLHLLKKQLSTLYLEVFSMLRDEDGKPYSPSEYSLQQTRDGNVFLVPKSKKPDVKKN
Chain of Keap1/Nrf2 (Q14145 whole entry): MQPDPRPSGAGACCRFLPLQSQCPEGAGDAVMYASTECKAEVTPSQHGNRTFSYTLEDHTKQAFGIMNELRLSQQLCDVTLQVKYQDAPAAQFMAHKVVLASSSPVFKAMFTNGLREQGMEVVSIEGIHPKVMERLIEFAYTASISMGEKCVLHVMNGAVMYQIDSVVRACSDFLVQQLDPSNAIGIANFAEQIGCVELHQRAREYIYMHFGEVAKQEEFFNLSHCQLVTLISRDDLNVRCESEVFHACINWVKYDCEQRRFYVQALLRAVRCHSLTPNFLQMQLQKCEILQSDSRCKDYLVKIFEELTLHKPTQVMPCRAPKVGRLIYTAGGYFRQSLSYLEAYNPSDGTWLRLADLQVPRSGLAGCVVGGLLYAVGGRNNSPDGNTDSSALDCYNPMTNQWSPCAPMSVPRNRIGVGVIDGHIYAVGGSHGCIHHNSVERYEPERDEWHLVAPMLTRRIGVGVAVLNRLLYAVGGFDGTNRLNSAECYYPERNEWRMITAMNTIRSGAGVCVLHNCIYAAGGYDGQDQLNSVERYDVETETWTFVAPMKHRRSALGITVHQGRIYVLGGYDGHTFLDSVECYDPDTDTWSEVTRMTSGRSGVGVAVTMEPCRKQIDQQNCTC

[5] = molecular target: T2, Mannose-6-phosphate isomerase (Homo sapiens, UniProt P34949); assay: phosphomannose isomerase inhibition – biochemical, fluorescence intensity, confirmation (AID 1535)
T2 sequence (P34949 whole entry): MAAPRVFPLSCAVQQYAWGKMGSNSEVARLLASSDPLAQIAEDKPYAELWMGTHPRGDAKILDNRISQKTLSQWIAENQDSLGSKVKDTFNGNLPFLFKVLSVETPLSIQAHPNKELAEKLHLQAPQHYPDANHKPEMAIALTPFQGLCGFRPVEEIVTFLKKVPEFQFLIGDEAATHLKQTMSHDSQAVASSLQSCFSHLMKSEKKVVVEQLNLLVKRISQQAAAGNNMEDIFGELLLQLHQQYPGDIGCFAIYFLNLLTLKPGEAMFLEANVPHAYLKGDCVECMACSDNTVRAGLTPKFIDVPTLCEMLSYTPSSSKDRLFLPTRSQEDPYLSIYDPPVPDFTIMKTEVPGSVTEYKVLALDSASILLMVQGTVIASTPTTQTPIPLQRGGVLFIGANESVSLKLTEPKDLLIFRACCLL

[6] = molecular target: Phosphomannomutase 2 (Homo sapiens, UniProt O15305); assay: Counter screen SAR assay for PMM2 inhibitors via a fluorescence intensity assay. [Related pubchem assays (depositor defined):AID1545, AID1574]
Chain of Phosphomannomutase 2 (O15305 whole entry): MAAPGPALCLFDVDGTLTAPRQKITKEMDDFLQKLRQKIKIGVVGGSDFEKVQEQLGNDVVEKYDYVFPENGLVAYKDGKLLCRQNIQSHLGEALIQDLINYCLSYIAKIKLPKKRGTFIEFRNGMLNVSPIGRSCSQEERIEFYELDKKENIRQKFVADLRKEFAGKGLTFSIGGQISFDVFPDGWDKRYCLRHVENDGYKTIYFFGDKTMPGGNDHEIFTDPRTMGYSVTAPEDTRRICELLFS

[7] = molecular target: Large T antigen (Simian virus 40, UniProt P03070); format: functional, Betapolyomavirus macacae;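 also: Confirmatory-stage PubChem screen for compounds that inhibit SV40 T antigen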
Chain of Large T antigen (P03070 whole entry): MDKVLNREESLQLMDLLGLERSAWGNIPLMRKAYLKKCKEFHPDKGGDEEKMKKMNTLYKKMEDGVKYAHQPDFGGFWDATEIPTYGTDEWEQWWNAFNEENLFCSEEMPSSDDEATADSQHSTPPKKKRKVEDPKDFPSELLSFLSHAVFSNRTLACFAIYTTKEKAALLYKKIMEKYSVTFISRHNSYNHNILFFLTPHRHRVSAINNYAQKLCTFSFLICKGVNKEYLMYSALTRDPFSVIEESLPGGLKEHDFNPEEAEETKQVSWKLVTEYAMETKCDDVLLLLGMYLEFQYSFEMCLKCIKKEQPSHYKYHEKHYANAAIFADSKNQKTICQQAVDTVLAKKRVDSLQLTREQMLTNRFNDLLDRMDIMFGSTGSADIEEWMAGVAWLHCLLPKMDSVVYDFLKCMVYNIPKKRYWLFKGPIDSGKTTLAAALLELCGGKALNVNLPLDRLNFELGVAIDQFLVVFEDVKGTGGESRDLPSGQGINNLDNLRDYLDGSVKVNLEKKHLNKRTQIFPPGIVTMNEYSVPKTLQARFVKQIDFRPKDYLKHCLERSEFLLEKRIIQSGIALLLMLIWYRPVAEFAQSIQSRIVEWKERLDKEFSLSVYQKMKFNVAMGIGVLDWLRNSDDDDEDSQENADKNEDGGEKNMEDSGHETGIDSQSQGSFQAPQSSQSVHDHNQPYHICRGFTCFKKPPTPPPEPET

[8] = molecular target: Potassium voltage-gated channel subfamily KQT member 2 (Rattus norvegicus, UniProt O88943); assay: rat KCNQ2 current potentiators – automated patch clamp, KCNQ2-CHO cells, SAR follow-up (AID 493113); format: functional
Chain of Potassium voltage-gated channel subfamily KQT member 2 (O88943 whole entry): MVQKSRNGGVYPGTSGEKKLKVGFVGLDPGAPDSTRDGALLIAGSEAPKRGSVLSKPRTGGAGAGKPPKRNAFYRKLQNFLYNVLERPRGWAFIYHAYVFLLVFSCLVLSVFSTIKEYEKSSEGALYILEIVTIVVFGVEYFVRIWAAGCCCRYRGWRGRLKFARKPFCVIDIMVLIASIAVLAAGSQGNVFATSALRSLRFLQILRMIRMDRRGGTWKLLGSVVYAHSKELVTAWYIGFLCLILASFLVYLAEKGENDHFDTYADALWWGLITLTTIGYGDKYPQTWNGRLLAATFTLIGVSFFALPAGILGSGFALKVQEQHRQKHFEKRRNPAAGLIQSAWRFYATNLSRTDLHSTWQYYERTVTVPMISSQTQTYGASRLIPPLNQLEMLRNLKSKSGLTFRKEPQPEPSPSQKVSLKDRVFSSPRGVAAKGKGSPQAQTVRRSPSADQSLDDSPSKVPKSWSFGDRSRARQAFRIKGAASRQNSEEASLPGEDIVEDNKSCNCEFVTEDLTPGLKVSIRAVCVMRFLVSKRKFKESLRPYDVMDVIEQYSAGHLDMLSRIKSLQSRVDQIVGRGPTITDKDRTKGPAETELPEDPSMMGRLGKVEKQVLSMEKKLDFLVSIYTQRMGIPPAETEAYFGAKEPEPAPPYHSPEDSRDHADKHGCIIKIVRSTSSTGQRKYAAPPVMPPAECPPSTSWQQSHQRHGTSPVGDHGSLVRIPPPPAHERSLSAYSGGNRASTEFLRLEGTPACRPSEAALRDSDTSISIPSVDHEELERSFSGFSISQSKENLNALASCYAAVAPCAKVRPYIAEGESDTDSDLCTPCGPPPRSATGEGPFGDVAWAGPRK

[9] = molecular target: T3, Histone-lysine N-methyltransferase NSD2 (Homo sapiens, UniProt O96028); format: biochemical
T3 sequence (O96028 whole entry): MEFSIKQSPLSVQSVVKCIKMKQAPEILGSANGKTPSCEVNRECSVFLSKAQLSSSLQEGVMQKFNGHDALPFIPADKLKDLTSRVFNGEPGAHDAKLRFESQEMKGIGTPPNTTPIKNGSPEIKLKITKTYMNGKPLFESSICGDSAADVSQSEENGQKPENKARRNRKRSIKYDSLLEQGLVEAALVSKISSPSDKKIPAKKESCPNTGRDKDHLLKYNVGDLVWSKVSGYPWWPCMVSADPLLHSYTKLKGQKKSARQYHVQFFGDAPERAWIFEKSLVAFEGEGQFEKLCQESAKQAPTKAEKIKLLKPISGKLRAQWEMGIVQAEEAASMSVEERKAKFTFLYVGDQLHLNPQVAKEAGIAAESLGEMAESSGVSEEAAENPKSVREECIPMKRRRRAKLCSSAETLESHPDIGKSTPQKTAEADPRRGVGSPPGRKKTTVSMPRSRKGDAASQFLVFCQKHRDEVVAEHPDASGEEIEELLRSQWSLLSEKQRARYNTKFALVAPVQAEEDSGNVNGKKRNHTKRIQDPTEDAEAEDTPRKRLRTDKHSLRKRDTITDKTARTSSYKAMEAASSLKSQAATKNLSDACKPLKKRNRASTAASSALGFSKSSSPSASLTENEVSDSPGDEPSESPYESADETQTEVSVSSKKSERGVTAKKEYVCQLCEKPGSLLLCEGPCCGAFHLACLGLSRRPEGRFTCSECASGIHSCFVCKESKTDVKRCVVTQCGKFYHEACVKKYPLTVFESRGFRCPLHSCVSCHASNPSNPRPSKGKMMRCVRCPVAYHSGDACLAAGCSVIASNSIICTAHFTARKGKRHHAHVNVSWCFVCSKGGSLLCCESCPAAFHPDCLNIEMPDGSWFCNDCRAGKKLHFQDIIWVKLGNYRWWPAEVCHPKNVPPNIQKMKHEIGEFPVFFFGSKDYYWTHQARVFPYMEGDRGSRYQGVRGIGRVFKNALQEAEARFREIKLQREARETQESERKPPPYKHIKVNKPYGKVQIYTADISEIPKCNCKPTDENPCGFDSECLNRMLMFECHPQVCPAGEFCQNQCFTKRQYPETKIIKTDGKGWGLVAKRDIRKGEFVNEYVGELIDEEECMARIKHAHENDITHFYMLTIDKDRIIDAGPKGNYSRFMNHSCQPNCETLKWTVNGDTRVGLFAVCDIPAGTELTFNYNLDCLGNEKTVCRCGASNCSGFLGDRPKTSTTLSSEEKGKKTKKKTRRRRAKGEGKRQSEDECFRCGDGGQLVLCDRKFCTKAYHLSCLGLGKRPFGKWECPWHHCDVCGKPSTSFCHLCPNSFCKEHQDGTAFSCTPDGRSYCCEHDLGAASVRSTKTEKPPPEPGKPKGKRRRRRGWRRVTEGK

[10] = molecular target: T4, Protein RecA (Mycobacterium tuberculosis, UniProt P9WHJ3); assay: Fluorescence Cell-Free Homogeneous Dose Retest to Identify Inhibitors of RecA-Intein Splicing Activity. [Related pubchem assays (depositor defined):AID2097, AID2223, AID489010, AID492950]; format: functional
T4 sequence (P9WHJ3 whole entry): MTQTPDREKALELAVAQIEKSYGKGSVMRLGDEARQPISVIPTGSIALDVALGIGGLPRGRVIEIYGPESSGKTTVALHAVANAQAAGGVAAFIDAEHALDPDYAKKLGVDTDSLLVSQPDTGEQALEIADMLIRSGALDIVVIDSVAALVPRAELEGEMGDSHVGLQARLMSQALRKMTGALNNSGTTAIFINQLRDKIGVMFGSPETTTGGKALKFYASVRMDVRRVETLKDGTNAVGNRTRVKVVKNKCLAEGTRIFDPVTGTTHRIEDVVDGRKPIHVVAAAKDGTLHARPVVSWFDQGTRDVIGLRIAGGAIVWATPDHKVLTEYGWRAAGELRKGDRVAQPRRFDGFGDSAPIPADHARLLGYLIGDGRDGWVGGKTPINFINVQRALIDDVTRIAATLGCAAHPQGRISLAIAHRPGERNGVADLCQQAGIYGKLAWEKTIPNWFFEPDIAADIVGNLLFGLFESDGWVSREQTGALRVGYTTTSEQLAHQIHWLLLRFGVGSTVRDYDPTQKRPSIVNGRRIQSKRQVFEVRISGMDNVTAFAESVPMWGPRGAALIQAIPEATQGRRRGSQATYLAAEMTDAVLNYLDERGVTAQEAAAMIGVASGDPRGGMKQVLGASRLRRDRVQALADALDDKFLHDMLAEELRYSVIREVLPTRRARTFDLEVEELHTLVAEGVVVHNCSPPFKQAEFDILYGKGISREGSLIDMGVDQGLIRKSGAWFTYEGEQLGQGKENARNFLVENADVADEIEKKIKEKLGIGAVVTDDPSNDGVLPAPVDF

[11] = molecular target: T5, Replicative DNA helicase DnaB (Mycobacterium tuberculosis, UniProt P9WMR3); assay: DnaB intein splicing inhibitors, dose response, biochemical, cell-free fluorescence (AID 449749); format: functional
T5 sequence (P9WMR3 whole entry): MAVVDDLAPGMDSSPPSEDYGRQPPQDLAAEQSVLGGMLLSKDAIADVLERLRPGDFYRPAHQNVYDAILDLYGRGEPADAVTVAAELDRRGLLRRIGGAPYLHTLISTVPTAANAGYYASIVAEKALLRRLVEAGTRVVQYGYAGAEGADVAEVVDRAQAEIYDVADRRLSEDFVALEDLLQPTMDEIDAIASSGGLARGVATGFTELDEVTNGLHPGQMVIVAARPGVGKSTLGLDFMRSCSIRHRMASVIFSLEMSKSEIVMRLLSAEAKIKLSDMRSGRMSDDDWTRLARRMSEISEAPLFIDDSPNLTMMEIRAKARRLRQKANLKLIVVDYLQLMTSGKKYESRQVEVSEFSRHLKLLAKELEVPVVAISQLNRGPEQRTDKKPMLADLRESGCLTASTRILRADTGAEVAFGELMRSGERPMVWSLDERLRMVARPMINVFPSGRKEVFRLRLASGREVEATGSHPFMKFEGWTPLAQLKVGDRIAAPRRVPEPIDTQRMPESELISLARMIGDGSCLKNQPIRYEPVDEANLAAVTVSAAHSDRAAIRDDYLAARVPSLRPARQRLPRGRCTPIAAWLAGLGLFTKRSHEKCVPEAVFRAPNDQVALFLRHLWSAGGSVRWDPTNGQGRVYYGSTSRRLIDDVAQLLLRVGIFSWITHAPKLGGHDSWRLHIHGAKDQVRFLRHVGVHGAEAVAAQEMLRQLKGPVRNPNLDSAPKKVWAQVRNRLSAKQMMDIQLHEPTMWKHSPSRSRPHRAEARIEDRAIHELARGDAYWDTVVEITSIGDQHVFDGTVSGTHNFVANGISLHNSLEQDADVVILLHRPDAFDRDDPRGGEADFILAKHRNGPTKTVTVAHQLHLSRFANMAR

[12] = molecular target: T2, Mannose-6-phosphate isomerase; assay: MPI inhibition at elevated mannose 6-phosphate – biochemical, fluorescence intensity, high mannose 6-phosphate, primary screen (AID 1220)
[13] = molecular target: Lysine-specific demethylase 4C (Homo sapiens, UniProt Q9H3R0); assay: inhibition of JMJD2C H3K9me3 demethylation – biochemical, DELFIA europium, cherry-picked samples, dose response (AID 488835); format: functional
Chain of Lysine-specific demethylase 4C (Q9H3R0 whole entry): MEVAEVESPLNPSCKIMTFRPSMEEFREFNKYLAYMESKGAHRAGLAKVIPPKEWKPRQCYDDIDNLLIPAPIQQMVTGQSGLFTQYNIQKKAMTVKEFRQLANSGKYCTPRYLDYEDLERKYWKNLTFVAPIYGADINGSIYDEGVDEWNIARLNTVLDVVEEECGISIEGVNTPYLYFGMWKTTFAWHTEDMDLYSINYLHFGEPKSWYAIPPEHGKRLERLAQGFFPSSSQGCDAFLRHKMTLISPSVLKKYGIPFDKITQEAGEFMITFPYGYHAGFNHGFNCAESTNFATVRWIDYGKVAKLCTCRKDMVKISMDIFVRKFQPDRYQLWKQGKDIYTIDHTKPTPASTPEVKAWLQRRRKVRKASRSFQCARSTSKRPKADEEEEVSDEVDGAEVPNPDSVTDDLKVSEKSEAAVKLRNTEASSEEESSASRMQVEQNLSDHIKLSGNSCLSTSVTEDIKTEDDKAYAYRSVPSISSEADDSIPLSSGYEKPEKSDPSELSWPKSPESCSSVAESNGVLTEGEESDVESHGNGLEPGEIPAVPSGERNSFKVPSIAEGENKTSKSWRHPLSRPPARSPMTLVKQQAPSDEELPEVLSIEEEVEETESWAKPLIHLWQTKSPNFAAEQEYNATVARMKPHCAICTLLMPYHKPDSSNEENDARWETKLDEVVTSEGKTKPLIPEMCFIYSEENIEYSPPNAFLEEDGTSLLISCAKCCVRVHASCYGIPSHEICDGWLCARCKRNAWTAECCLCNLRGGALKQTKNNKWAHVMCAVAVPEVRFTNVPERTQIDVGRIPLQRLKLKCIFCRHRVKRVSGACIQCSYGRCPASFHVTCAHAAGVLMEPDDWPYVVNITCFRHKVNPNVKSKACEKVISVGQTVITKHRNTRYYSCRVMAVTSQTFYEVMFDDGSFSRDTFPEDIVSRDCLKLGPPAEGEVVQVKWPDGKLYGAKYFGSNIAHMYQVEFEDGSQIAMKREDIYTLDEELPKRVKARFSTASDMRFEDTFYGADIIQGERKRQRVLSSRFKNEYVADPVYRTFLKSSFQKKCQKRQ

## O=C1C2(CCCC13COC(c1ccc(O)cc1)OC3)COC(c1ccc(O)cc1)OC2 (stereo not drawn)
[1]
  EC50: 9.2 µM (active)

## O=c1c(-c2cc3ccccc3o2)[n+]([O-])c2ccccc2n1OCc1ccccn1
[2]
  EC50: 4.81 µM (active)
[3]
  EC50: 65.5 µM (inconclusive)
[4]
  AC50: > 52 µM (inactive)

## CCOc1ccc(-c2n[nH]c(=S)[nH]2)cc1
[5]
  IC50: 39.1 µM (active)
[6]
  IC50: > 100 µM (inactive)
[7]
  IC50: > 100 µM (active)

## Cc1cc(C)c(NC(=O)CCC2CCCC2)c(C)c1
[8]
  EC50: 490 nM (active)

## Cc1nnc(N/N=C\c2ccc(-c3ccccc3[N+](=O)[O-])o2)n1N
[9]
  AC50: 10.3 µM (active)
[10]
  EC50: 23.5 µM (active)
[11]
  AC50: 58.9 µM (active)
[12]
  IC50: > 50 µM (not active)
[13]
  AC50: 7.3 µM (active)

Source: ChEMBL document CHEMBL1201862, “PubChem BioAssay data set” (2004)
